The pest or weed control is the degree to which the test organism was suppressed or injured, in per cent. Lower therefore signals a weak effect.

Assay [1] concerns Mycosphaerella arachidis (Cercospora arachidicola). Description: Mycosphaerella arachidis liquid culture growth inhibition. Type of assay: cell-based. Particulars: photometric, 4-5 days after application, read-out: control on Mycosphaerella arachidis. As to the method: (§1) Conidia of the fungus from cryogenic storage are directly mixed into nutrient broth (PDB potato dextrose broth). After placing a (DMSO) solution of test compound into a microtiter plate (96-well format), the nutrient broth containing the fungal spores is added.

For assay [2], the system named is Thanatephorus cucumeris (Rhizoctonia solani). Description: Thanatephorus cucumeris liquid culture growth inhibition. The format is cell-based. Conditions: photometric, 3-4 days after application, read-out: control on Thanatephorus cucumeris. The protocol: Mycelia fragments of a newly grown liquid culture of the fungus are directly mixed into nutrient broth (PDB potato dextrose broth). After placing a (DMSO) solution of the test compounds into a microtiter plate (96-well format), the nutrient broth containing the fungal material is added. The test plates are incubated at 24° C. and the inhibition of growth is determined photometrically 3-4 days after application.

Assay [3] concerns Pythium ultimum. The assay can be described thus: Pythium ultimum liquid culture growth inhibition. Type of assay: cell-based. Conditions: Globisporangium ultimum, photometric, 2-3 days after application, read-out: control on Pythium ultimum. As to the method: Mycelia fragments and oospores of a newly grown liquid culture of the fungus are directly mixed into nutrient broth (PDB potato dextrose broth). After placing a (DMSO) solution of test compound into a microtiter plate (96-well format), the nutrient broth containing the fungal mycelia/spore mixture is added.

Assay [4] concerns Fusarium culmorum. The assay can be described thus: Fusarium culmorum liquid culture growth inhibition. Particulars: photometric, 3-4 days after application, read-out: control on Fusarium culmorum. Type of assay: cell-based. The protocol:
Conidia of the fungus from cryogenic storage are directly mixed into nutrient broth (PDB potato dextrose broth). After placing a (DMSO) solution of test compound into a microtiter plate (96-well format), the nutrient broth containing the fungal spores is added. The test plates are incubated at 24° C. and the inhibition of growth is determined photometrically 3-4 days after application.

The subject of assay [5] is Monographella nivalis (Microdochium nivale). The assay can be described thus: Monographella nivalis liquid culture growth inhibition. Type of assay: cell-based. Particulars: photometric, 4-5 days after application, read-out: control on Monographella nivalis. The protocol: Conidia of the fungus from cryogenic storage are directly mixed into nutrient broth (PDB potato dextrose broth). After placing a (DMSO) solution of test compound into a microtiter plate (96-well format), the nutrient broth containing the fungal spores is added. The test plates are incubated at 24° C. and the inhibition of growth is determined photometrically 4-5 days after application.

Assay [6] has as its system Botryotinia fuckeliana (Botrytis cinerea). Description: Botryotinia fuckeliana liquid culture growth inhibition. Type of assay: cell-based. Particulars: photometric, 3-4 days after application, read-out: control on Botryotinia fuckeliana. As to the method:
Conidia of the fungus from cryogenic storage are directly mixed into nutrient broth (Vogels broth). After placing a (DMSO) solution of test compound into a microtiter plate (96-well format), the nutrient broth containing the fungal spores is added.

For assay [7], the system named is Glomerella lagenarium (Colletotrichum lagenarium). Description: Glomerella lagenarium liquid culture growth inhibition. The format is cell-based. Conditions: Colletotrichum orbiculare, photometric, 3-4 days after application, read-out: control on Glomerella lagenarium. As to the method: as §1
In assay [8] the test system is Alternaria solani. The assay can be described thus: Alternaria solani on tomato plants. Particulars: 4-week old tomato plants cv. Roter Gnom, spray, inoculated two days after application. The format is in vivo. As to the method: 4-week old tomato plants cv. Roter Gnom are sprayed in a spray chamber with the formulated test compound diluted in water. The test plants are inoculated by spraying them with a spore suspension two days after application. The inoculated test plants are incubated at 22/18° C. (day/night) and 95% rh in a greenhouse and the percentage leaf area covered by disease is assessed when an appropriate level of disease appears on untreated check plants (5-7 days after application).

`CC(C)(C)c1ccc2c(c1)COB2OCCN` [Compound 33, 2-(5-tert-Butyl-3H-benzo[c][1,2]oxaborol-1-yloxy)-ethylamine]: in assay [1], the inhibition of growth at 200 ppm is no less than 80%.
`Clc1ccc2c(c1)COB2Oc1cccc2cccnc12` [Compound 22, 8-(5-Chloro-3H-benzo[c][1,2]oxaborol-1-yloxy)-quinoline]: the inhibition of growth at 200 ppm in assay [1], in assay [2], in assay [3], in assay [4], in assay [5] and in assay [6] was no less than 80% in each case. Also, the inhibition of growth at 200 ppm in assay [7] is no less than 80%.
In the case of `CC(C)(C)c1ccc2c(c1)COB2O` [Compound 34, 5-tert-Butyl-3H-benzo[c][1,2]oxaborol-1-ol], the inhibition of growth at 200 ppm in assay [1], in assay [5] and in assay [7] was no less than 80% each time.
Take `c1ccc2c(c1)COB2Oc1cccc2cccnc12` [Compound 31, 8-(3H-Benzo[c][1,2]oxaborol-1-yloxy)-quinoline]: the inhibition of growth at 200 ppm in assay [1], in assay [3], in assay [4], in assay [5], in assay [6] and in assay [7] was no less than 80% throughout.
On to `N[C@@H](COB1OCc2cc(Cl)ccc21)c1ccccc1` [Compound 23, (R)-2-(5-Chloro-3H-benzo[c][1,2]oxaborol-1-yloxy)-1-phenyl-ethylamine], for which the inhibition of growth at 200 ppm in assay [1], in assay [3], in assay [4], in assay [5], in assay [6] and in assay [7] was no less than 80% in each case.
Consider `N[C@H](COB1OCc2cc(Cl)ccc21)c1ccccc1` [Compound 25, (S)-2-(5-Chloro-3H-benzo[c][1,2]oxaborol-1-yloxy)-1-phenyl-ethylamine], for which the inhibition of growth at 200 ppm in assay [1], in assay [3], in assay [4], in assay [5], in assay [6] and in assay [7] was no less than 80% in each case.
For the molecule `Clc1ccc2c(c1)COB2OC[C@@H]1CCCN1` [Compound 24, (S)-2-(5-Chloro-3H-benzo[c][1,2]oxaborol-1-yloxymethyl)-pyrrolidine], the inhibition of growth at 200 ppm in assay [1], in assay [2], in assay [3], in assay [4], in assay [5] and in assay [6] was no less than 80% each time. The inhibition of growth at 200 ppm in assay [7] was no less than 80%.
`NCC(OB1OCc2cc(Cl)ccc21)c1ccccc1` (stereo not shown) [Compound 3, 2-(5-Chloro-3H-benzo[c][1,2]oxaborol-1-yloxy)-2-phenyl-ethylamine]: the inhibition of growth at 200 ppm in assay [1], in assay [3], in assay [4], in assay [5], in assay [6] and in assay [7] was no less than 80% each time. This molecule had a pest or weed control at 60 ppm in assay [8] of no less than 60%.
As to `N[C@H](COB1OCc2cc(Cl)ccc21)Cc1ccccc1` [Compound 20, (S)-1-Benzyl-2-(5-chloro-3H-benzo[c][1,2]oxaborol-1-yloxy)-ethylamine], the inhibition of growth at 200 ppm in assay [1], in assay [2], in assay [3], in assay [4], in assay [5] and in assay [6] was no less than 80% throughout. Further, the inhibition of growth at 200 ppm in assay [7] is no less than 80%.
Regarding `CC(C)(N)COB1OCc2ccccc21` [Compound 32, 2-(3H-Benzo[c][1,2]oxaborol-1-yloxy)-1,1-dimethyl-ethylamine], the inhibition of growth at 200 ppm in assay [1], in assay [3], in assay [4], in assay [5], in assay [6] and in assay [7] was no less than 80% throughout.
For the molecule `NCCOB1OCc2c1ccc1ccccc21` [Compound 18, 2-(1H-2-Oxa-3-bora-cyclopenta[a]naphthalen-3-yloxy)-ethylamine], the inhibition of growth at 200 ppm in assay [1], in assay [3], in assay [4], in assay [5] and in assay [7] was no less than 80% throughout. Besides, in assay [8], the pest or weed control at 60 ppm is no less than 60%.
With `CC(C)(N)COB1OCc2cc(Cl)ccc21` [Compound 21, 2-(5-Chloro-3H-benzo[c][1,2]oxaborol-1-yloxy)-1,1-dimethyl-ethylamine], the inhibition of growth at 200 ppm in assay [1], in assay [2], in assay [3], in assay [4], in assay [5] and in assay [6] was no less than 80% each time. The inhibition of growth at 200 ppm in assay [7] is no less than 80%.
For `OB1OCc2c1ccc1ccccc21` [Compound 16, 1H-2-Oxa-3-bora-cyclopenta[a]naphthalen-3-ol], the inhibition of growth at 200 ppm in assay [1], in assay [5], in assay [6] and in assay [7] was no less than 80% throughout.
As to `OB1OC(c2ccccc2)c2ccccc21` (stereo not shown) [Compound 19, 3-Phenyl-3H-benzo[c][1,2]oxaborol-1-ol], the inhibition of growth at 200 ppm in assay [1], in assay [3], in assay [5] and in assay [7] was no less than 80% throughout.
On to `OB1OCc2ccc(Cl)cc21` [Compound 6, 6-Chloro-3H-benzo[c][1,2]oxaborol-1-ol], for which the inhibition of growth at 200 ppm in assay [1], in assay [2], in assay [3], in assay [4], in assay [5] and in assay [6] was no less than 80% in each case. Also, the inhibition of growth at 200 ppm in assay [7] was no less than 80%.
Consider `NCCOB1OCc2cc(Oc3ccccc3)ccc21` [Compound 35, 2-(5-Phenoxy-3H-benzo[c][1,2]oxaborol-1-yloxy)-ethylamine], for which the inhibition of growth at 200 ppm in assay [1], in assay [5] and in assay [7] was no less than 80% throughout.
For `NCCOB1OCc2cc(Cl)ccc21` [Compound 36, 2-(5-Chloro-3H-benzo[c][1,2]oxaborol-1-yloxy)-ethylamine], the inhibition of growth at 200 ppm in assay [1], in assay [2], in assay [3], in assay [4], in assay [5] and in assay [6] was no less than 80% throughout. The inhibition of growth at 200 ppm in assay [7] was no less than 80%.
